US8232308B2, “Methods for treating a disease in which Rho kinase is involved” (UBE Industries, Ltd., priority 2003, dated 2012)
Where a name gives a salt, the structure may show the parent alone.

Biological target: T1, activated ROCK II (Rattus norvegicus, UniProt Q62868)
T1 construct: purchased Upstate Biotechnology 14-338
Assay: Test for Evaluation of Inhibiting Activity to Rho Kinase
Type: biochemical
Details: S6 Kinase Substrate Peptide, [γ-32P]ATP, 30° C. for 15 minutes, Ki=IC50/(1+S/Km)
Experimental: In order to find the utility of the present invention compound, a Rho kinase inhibiting activity of the present invention compound was evaluated. The details thereof will be illustrated under the item of “Pharmacological Test (Test for Evaluation of Rho Kinase Inhibiting Activity)” in the Examples which will be mentioned later. The evaluation of the Rho kinase inhibiting activity of the present invention compound was carried out in accordance with the methods mentioned in J. Biol. Chem., 274, 32418 (1999) by Kaibuchi, et al. and mentioned in the instruction manual for use attached to the commercially available activated ROCK II [Upstate Biotechnology, Catalog No. 14-338 (5 units/50 μl)].
A. Test for Evaluation of Inhibiting Activity to Rho Kinase
In order to test the usefulness of the compounds of the present invention as a Rho kinase inhibitor, inhibiting activities of the compounds of the present invention to Rho kinase were evaluated and investigated in accordance with the methods of Kaibuchi, et al. mentioned in J. Biol. Chem., 274, 32418, 1999 and also with the methods mentioned in the instruction manual for use attached to commercially available activated ROCK II [Upstate Biotechnology, Catalog No. 14-338, (5 unite/50 μl)]. With regard to the test compounds, the compounds 5-1 to 5-73 (except the compounds 5-2, 5-9, 5-18, 5-37 and 5-38) were used.
A buffer was prepared so as to make tris(hydroxymethyl)aminomethane (Tris) (pH 7.5), 50 mM, ethyleneglycol bis(β-aminoethyl ether)-N,N,N′,N′-tetraacetic acid (EGTA), 2 mM, ethylenediaminetetraacetic acid (EDTA), 1 mM, magnesium chloride (MgCl2) 5 mM, β-glycerol phosphate, 5 mM, and dithiothreitol (DTT), 2 mM, by mixing them.
A mixed liquid of a 10 mM ATP solution with a commercially available [γ-^32P]ATP solution [NEN, Code No. NEG-002A] was diluted with the buffer to prepare a 300 μM ATP [γ-^32P]ATP solution.
A Commercially Available Activated ROCK II [Upstate Biotechnology, Catalog No. 14-338, (5 Units/50 μl)] was diluted to a concentration of 1/100 with the buffer to prepare an activated ROCK II solution.
A S6 Kinase Substrate Peptide [Upstate Biotechnology, Catalog No. 12-124,] (2 mg) was dissolved in distilled water to prepare a 1 mM substrate solution.
A test compound was dissolved in 10% aqueous dimethyl sulfoxide solution.
1) The test compound solution is placed in a microtube.
2) The 300 μM ATP [γ-^32P]ATP solution is added to the microtube followed by cooling to 4° C.
3) After that, a permanently activated ROCK II solution, 1 mM substrate solution and buffer are added to each microtube in that order, and the whole is mixed and cooled again at 4° C.
4) The microtube is placed in an incubator (30° C.) and the mixture is subjected to reaction for 15 minutes.
5) After cooling to 4° C., a 250 mM phosphoric acid solution (5 μl) is added to each microtube to stop the reaction.
6) The reaction solution (30 μl) is taken out from each microtube and spotted on a filter paper (Whatman P81) so that the reaction product (phosphorylated substrate) is adsorbed to the filter paper.
7) The filter paper is transferred to a beaker in which a 75 mM phosphoric acid solution is placed and shaken for 5 minutes so that unreacted [γ-^32P]AfP is washed out. The washing operation as such is carried out four times.
8) After that, the filter paper is dipped in ethanol to dehydrate and energy amount (radioactivity) of the reaction product adsorbed to the filter paper is measured with a liquid scintillation counter.
The IC50 value was calculated by an XL-fit (IDBS).
The Ki value is calculated by the following formula. S is an ATP concentration contained in the reaction solution while Km is a Michaelis-Menten constant. Ki=IC50/(1+S/Km)

T1 sequence (Q62868 11-550 limits assumed): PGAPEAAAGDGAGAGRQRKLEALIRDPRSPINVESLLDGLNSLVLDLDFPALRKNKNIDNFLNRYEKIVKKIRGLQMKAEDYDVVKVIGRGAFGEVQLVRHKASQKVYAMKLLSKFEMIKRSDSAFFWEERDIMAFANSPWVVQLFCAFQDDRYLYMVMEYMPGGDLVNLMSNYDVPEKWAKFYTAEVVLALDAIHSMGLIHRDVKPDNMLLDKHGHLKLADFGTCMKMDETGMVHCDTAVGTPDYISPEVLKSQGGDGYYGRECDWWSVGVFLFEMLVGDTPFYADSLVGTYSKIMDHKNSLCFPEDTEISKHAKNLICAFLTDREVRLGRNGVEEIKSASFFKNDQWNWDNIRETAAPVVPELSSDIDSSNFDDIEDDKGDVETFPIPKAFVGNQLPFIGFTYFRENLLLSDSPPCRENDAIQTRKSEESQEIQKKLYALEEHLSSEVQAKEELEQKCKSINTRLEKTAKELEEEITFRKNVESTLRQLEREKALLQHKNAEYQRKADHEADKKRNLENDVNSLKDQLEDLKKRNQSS

| SMILES | Ki [nM] |
| --- | --- |
| CCCOc1c(-c2ccc(C(C)(C)N)cn2)ccc2[nH]ncc12 [Compound 5-58, 5-[5-(1-Amino-1-methylethyl)pyridin-2-yl]-4-n-propoxy-1H-indazole trihydrochloride] | 39 |
| C=Cc1c(-c2ccc(C(C)(C)N)cn2)ccc2[nH]ncc12 [Compound 5-30, 5-[5-(1-Amino-1-methylethyl)pyridin-2-yl]-4-vinyl-1H-indazole trihydrochloride] | 17 |
| CC(C)(N)c1ccc(-c2ccc3[nH]ncc3c2N2CCCC2)cc1 [Compound 5-42, 5-[4-(1-Amino-1-methylethyl)phenyl]-4-(pyrrolidin-1-yl)-1H-indazole trihydrochloride] | 14 |
| CC(C)(N)c1ccc(-c2ccc3[nH]ncc3c2[N+](=O)[O-])cc1 [Compound 5-4, 5-[4-(1-Amino-1-methylethyl)phenyl]-4-nitro-1H-indazole monohydrochloride] | 28 |
| CC(C)(N)c1ccc(-c2ccc3[nH]ncc3c2O)cc1 [Compound 5-48, 5-[4-(1-Amino-1-methylethyl)phenyl]-4-hydroxy-1H-indazole dihydrochloride] | 29 |
| CCc1c(-c2ccc(C(C)(C)N)cn2)ccc2[nH]ncc12 [Compound 5-28, 5-[5-(1-Amino-1-methylethyl)pyridin-2-yl]-4-ethyl-1H-indazole trihydrochloride] | 15 |
| CC(C)(N)c1ccc(-c2ccc3[nH]ncc3c2-c2cn[nH]c2)nc1 [Compound 5-65, 5-[5-(1-Amino-1-methylethyl)pyridin-2-yl]-4-(pyrazol-4-yl)-1H-indazole tetrahydrochloride] | 56 |
| CCC(N)(CC)c1ccc(-c2ccc3[nH]ncc3c2OC)nc1 [Compound 5-51, 5-[5-(1-Amino-1-ethylpropyl)pyridin-2-yl]-4-methoxy-1H-indazole trihydrochloride] | 38 |
| CC(C)(N)c1ccc(-c2ccc3[nH]ncc3c2-c2cc[nH]n2)cc1 [Compound 5-67, 5-[4-(1-Amino-1-methylethyl)phenyl]-4-(pyrazol-3-yl)-1H-indazole trihydrochloride] | 11 |
| CN(C)c1c(-c2ccc(C3(N)CCCC3)cc2)ccc2[nH]ncc12 [Compound 5-24, 5-[4-(1-Aminocyclopentyl)phenyl]-4-dimethylamino-1H-indazole trihydrochloride] | 14 |
| CC(C)Oc1c(-c2ccc(C(C)(C)N)cc2)ccc2[nH]ncc12 [Compound 5-40, 5-[4-(1-Amino-1-methylethyl)phenyl]-4-isopropoxy-1H-indazole dihydrochloride] | 33 |
| CC(C)(N)c1ccc(-c2ccc3[nH]nc(C(N)=O)c3c2)cc1 [Compound 5-10, 3-Aminocarbonyl-5-[4-(1-amino-1-methylethyl)phenyl]-1H-indazole monohydrochloride] | 134 |
| CC(C)(N)c1ccc(-c2ccc3[nH]ncc3c2)cc1 [Compound 5-1, 5-[4-(1-amino-1-methylethyl)phenyl]-1H-indazole dihydrochloride] | 19 |
| NCc1ccc(-c2ccc3[nH]ncc3c2[N+](=O)[O-])cc1 [Compound 5-19, 5-[4-(Aminomethyl)phenyl]-4-nitro-1H-indazole dihydrochloride] | 55 |
| CCOc1c(-c2ccc(C(N)(CC)CC)cn2)ccc2[nH]ncc12 [Compound 5-60, 5-[5-(1-Amino-1-ethylpropyl)pyridin-2-yl]-4-ethoxy-1H-indazole trihydrochloride] | 35 |
| CC(O)c1c(-c2ccc(C(C)(C)N)cc2)ccc2[nH]ncc12 (centres unmarked) [Compound 5-34, 5-[4-(1-Amino-1-methylethyl)phenyl]-4-(1-hydroxy-ethyl)-1H-indazole dihydrochloride] | 294 |

| SMILES | Ki [nM] |
| --- | --- |
| COc1c(-c2ccc(C3(N)CCCC3)cn2)ccc2[nH]ncc12 [Compound 5-46, 5-[5-(1-Aminocyclopentyl)pyridin-2-yl]-4-methoxy-1H-indazole trihydrochloride] | 27 |
| CC(C)Oc1c(-c2ccc(C(C)(C)N)cn2)ccc2[nH]ncc12 [Compound 5-50, 5-[5-(1-Amino-1-methylethyl)pyridin-2-yl]-4-isopropoxy-1H-indazole trihydrochloride] | 84 |
| CCC(N)(CC)c1ccc(-c2ccc3[nH]ncc3c2OC(F)F)cc1 [Compound 5-72, 5-[4-(1-Amino-1-ethylpropyl)phenyl]-4-difluoro-methoxy-1H-indazole dihydrochloride] | 13 |
| CC(C)(N)c1ccc(-c2ccc3[nH]nc(CO)c3c2)cc1 [Compound 5-14, 5-[4-(1-Amino-1-methylethyl)phenyl]-3-hydroxymethyl-1H-indazole dihydrochloride] | 142 |
| CC(C)(N)c1ccc(-c2ccc3[nH]ncc3c2-c2cn[nH]c2)cc1 [Compound 5-64, 5-[4-(1-Amino-1-methylethyl)phenyl]-4-(pyrazol-4-yl)-1H-indazole trihydrochloride] | 4.4 |
| CC(C)(N)c1ccc(-c2ccc3[nH]ncc3c2OCCF)cc1 [Compound 5-56, 5-[4-(1-Amino-1-methylethyl)phenyl]-4-(2-fluoro-ethoxy)-1H-indazole dihydrochloride] | 26 |
| CC(C)(N)c1ccc(-c2ccc3[nH]ncc3c2-c2cnco2)cc1 [Compound 5-66, 5-[4-(1-Amino-1-methylethyl)phenyl]-4-(oxazol-5-yl)-1H-indazole dihydrochloride] | 2.6 |
| CC(C)(N)c1ccc(-c2ccc3[nH]ncc3c2O)nc1 [Compound 5-69, 5-[5-(1-Amino-1-methylethyl)pyridin-2-yl]-4-hydroxy-1H-indazole trihydrochloride] | 55 |
| C=CCOc1c(-c2ccc(C(C)(C)N)cc2)ccc2[nH]ncc12 [Compound 5-57, 4-Allyloxy-5-[4-(1-amino-1-methylethyl)phenyl]-1H-indazole dihydrochloride] | 23 |
| CC(C)(N)c1cnc(-c2ccc3[nH]ncc3c2)c(Cl)c1 [Compound 5-27, 5-[5-(1-Amino-1-methylethyl)-3-chloropyridin-2-yl]-1H-indazole trihydrochloride] | 86 |
| CC(C)(N)c1ccc(-c2ccc3[nH]ncc3c2OC2CC2)nc1 [Compound 5-70, 5-[5-(1-Amino-1-methylethyl)pyridin-2-yl]-4-cyclo-propyloxy-1H-indazole trihydrochloride] | 28 |
| CC(C)(N)c1ccc(-c2ccc3[nH]ncc3c2OC(F)F)nc1 [Compound 5-59, 5-[5-(1-Amino-1-methylethyl)pyridin-2-yl]-4-difluoromethoxy-1H-indazole trihydrochloride] | 6.9 |
| NCc1ccc(-c2ccc3[nH]ncc3c2N)cc1 [Compound 5-20, 4-Amino-5-[4-(aminomethyl)phenyl]-1H-indazole trihydrochloride] | 61 |
| CC(C)(N)c1ccc(-c2ccc3[nH]ncc3c2-n2cccc2)cc1 [Compound 5-39, 5-[4-(1-Amino-1-methylethyl)phenyl]-4-(pyrrol-1-yl)-1H-indazole dihydrochloride] | 12 |
| CC(C)(N)c1ccc(-c2ccc3[nH]ncc3c2)nc1 [Compound 5-3, 5-[5-(1-Amino-1-methylethyl)pyridin-2-yl]-1H-indazole trihydrochloride] | 20 |
| CCOc1c(-c2ccc(C(C)(C)N)cc2)ccc2[nH]ncc12 [Compound 5-49, 5-[4-(1-Amino-1-methylethyl)phenyl]-4-ethoxy-1H-indazole dihydrochloride] | 17 |
